According to ChEMBL document CHEMBL5252624, “Antifungal evaluation of quinoline-chalcone derivatives combined with FLC against drug-resistant Candida albicans” (2023):
Calls of active or inactive are those of the source. No cut-off for these calls is given here.

Tests used:
Candida albicans [1] = test: Antifungal activity against Candida albicans ATCC SC5314 assessed as fungal growth inhibition in presence of fluconazole by microdilution method; format: functional
Candida albicans [2] = test: Antifungal activity against Candida albicans ATCC SC5314 assessed as fractional inhibitory concentration index in presence of fluconazole by microdilution method; format: functional
Candida albicans [3] = test: Antifungal activity against […] assessed as fractional inhibitory concentration index in presence of fluconazole by microdilution method; format: functional
Candida albicans [4] = test: Antifungal activity against Candida albicans ATCC SC5314 assessed as fungal growth inhibition by microdilution method; format: functional
Candida albicans [5] = test: Antifungal activity against […] assessed as fungal growth inhibition by microdilution method; format: functional
Candida albicans [6] = test: Antifungal activity against […] assessed as fungal growth inhibition in presence of fluconazole by microdilution method; format: functional
Candida albicans [7] = test: Inhibition of mitochondrial membrane potential in Candida albicans in presence of fluconazole; format: functional, organism-based
Candida albicans [8] = test: Antifungal activity against Candida albicans ATCC SC5314 assessed as decrease in number of hypha at 32 microg/ml measured for 4 to 8 hrs in presence fluconazole of by inverted microscopic analysis; format: functional, organism-based; details: dose 32.0 µg/ml, time 4-8 hrs
Candida albicans [9] = test: Downregulation of ATP level in Candida albicans; format: functional, organism-based
Candida albicans [10] = test: Induction of ROS accumulation in Candida albicans assessed as increase in intracellular ROS level; format: functional, organism-based
Candida albicans [11] = test: Inhibition of biofilm formation in Candida albicans ATCC SC5314 at 32 microg/ml in presence fluconazole measured at 24 hrs; format: functional, organism-based; details: dose 32.0 µg/ml
Candida albicans [12] = test: Downregulation of ATP level in Candida albicans in presence of fluconazole; format: functional, organism-based
Candida albicans [13] = test: Induction of ROS accumulation in Candida albicans assessed as increase in intracellular ROS level in presence of fluconazole; format: functional, organism-based
Candida albicans [14] = test: Antifungal activity against Candida albicans ATCC SC5314 assessed as reduction in hypha length at 32 microg/ml measured for 4 to 8 hrs in presence fluconazole of by inverted microscopic analysis; format: functional, organism-based; details: dose 32.0 µg/ml, time 4-8 hrs
Candida albicans [15] = test: Antifungal activity against […] assessed as fungal growth inhibition in presence of fluconazole by time kill assay; format: functional, organism-based; details: time 72.0 hrs, TDE = time-dependent effect
Candida albicans [16] = test: Antifungal activity against […] assessed as fungal growth inhibition measured for 72 hrs by time kill assay; format: functional, organism-based
Candida albicans [17] = test: Inhibition of mitochondrial membrane potential in Candida albicans; format: functional, organism-based

SMILES	MIC80 (Candida albicans [1]) [µg/mL]	FICI80 (Candida albicans [2])	FICI80 (Candida albicans [3])	MIC80 (Candida albicans [4]) [µg/mL]	MIC80 (Candida albicans [6]) [µg/mL]	other results
Cc1cccc(C)c1Oc1nc2ccccc2cc1/C=C/C(=O)c1ccc(OC(F)(F)F)cc1	2.37	1.17	2	> 200		
OC(Cn1cncn1)(Cn1cncn1)c1ccc(F)cc1F [FLUCONAZOLE]				2.03		MIC80 (Candida albicans [5]): > 200 µg/mL
Cc1cccc(C)c1Oc1nc2ccccc2cc1/C=C/C(=O)c1ccc([N+](=O)[O-])cc1	3.07	1.52	0.23	> 200		
O=C(/C=C/c1cc2ccccc2nc1N1CCCCC1)c1ccc(OC(F)(F)F)cc1	4.89	2.42	2	> 200		
O=C(/C=C/c1cc2ccccc2nc1N1CCCCC1)c1ccc([N+](=O)[O-])cc1	5.64	2.79	2	> 200		
Cc1cccc(C)c1Oc1nc2ccccc2cc1/C=C/C(=O)c1ccc(F)cc1	1.17	0.58	0.33	> 200	65.1	
CN1CCN(c2nc3ccccc3cc2/C=C/C(=O)c2ccc(F)cc2)CC1	3.61	1.82	0.16	85.9	6.4	MIC80 (Candida albicans [5]): > 200 µg/mL; inhibition (Candida albicans [7]): Active; Activity (Candida albicans [8]): Active; Activity (Candida albicans [9]): Active; Activity (Candida albicans [10]): Active; inhibition (Candida albicans [11]): Active; Activity (Candida albicans [12]): Active; Activity (Candida albicans [13]): Active; Activity (Candida albicans [14]): Active; Activity (Candida albicans [15]): Tde; Activity (Candida albicans [16]): Active
CCOc1nc2ccccc2cc1/C=C/C(=O)c1ccc(F)cc1	5.54	2.74	2	> 200		
CCN(CC)c1nc2ccccc2cc1/C=C/C(=O)c1ccc([N+](=O)[O-])cc1	3.99	1.98	2	> 200		
CCN(CC)c1nc2ccccc2cc1/C=C/C(=O)c1ccc(F)cc1	1.87	0.93	0.03	> 200	5.36	
CCOc1nc2ccccc2cc1/C=C/C(=O)c1ccc(OC(F)(F)F)cc1	2.9	16.04	0.08	> 200	16	
CCN(CC)c1nc2ccccc2cc1/C=C/C(=O)c1ccc(OC(F)(F)F)cc1	1.85	0.92	0.02	> 200	4.42	
O=C(/C=C/c1cc2ccccc2nc1N1CCCCC1)c1ccc(F)cc1	0.96	0.48	2	> 200		
CN1CCN(c2nc3ccccc3cc2/C=C/C(=O)c2ccc(OC(F)(F)F)cc2)CC1	4.28	2.35	0.23	17.6	6.14	MIC80 (Candida albicans [5]): 17.8 µg/mL
CN1CCN(c2nc3ccccc3cc2/C=C/C(=O)c2ccc([N+](=O)[O-])cc2)CC1	4.28	1.25	0.17	> 200	6.9	Activity (Candida albicans [9]): Active; Activity (Candida albicans [10]): inactive; inhibition (Candida albicans [11]): Active; Activity (Candida albicans [12]): Active; Activity (Candida albicans [13]): Active; inhibition (Candida albicans [17]): inactive; Activity (Candida albicans [15]): Tde; Activity (Candida albicans [16]): Active
CCOc1nc2ccccc2cc1/C=C/C(=O)c1ccc([N+](=O)[O-])cc1	4.96	2.46	2	> 200		
